Source: US5070210A, “Novel ketenimines as intermediates for insecticides” (ICI Americas Inc., priority 1990, dated 1991)

How the values were obtained:
Format in all cases: in vivo
[1] = system: Cabbage Looper [Trichoplusia ni (Hubner)]; experiment: Cabbage looper insecticidal test; settings: second-instar larvae, percent in solution; 3-5 days
Outline: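 LC50 values, given as percent test compound in solution, were calculated from dosage-mortality curves. Squash cotyledons were immersed 2-3 s in acetone-water (50-50) dilutions starting at 0.1%, dried on a screen, then infested with five second-instar larvae. Mortality was read 3-5 days on.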

[2] = system: Tobacco Budworm [Heliothis virescens (Fabricius)] larvae; experiment: Tobacco budworm contact test; settings: second-instar larvae, percent in solution, 5 days
Experimental: The compounds in Tables 1 and 2 above were tested for insecticidal activity using the following testing procedures. LC50 values, based on the results of these tests and calculated according to dosage-mortality curves, are expressed in Table 3.
Tobacco Budworm [Heliothis virescens (Fabricius)]:
(a) Contact: Test compounds were diluted in a 50-50 acetone-water solution. Cotton (Gossypium sp.) cotyledons were immersed in the test solutions for 2-3 seconds and placed on a wire screen to dry. The dried leaves were placed in petri dishes containing a moistened piece of filter paper and infested with 5 second-instar tobacco budworm larvae. The dishes were placed in a high humidity chamber for 5 days, and percent mortality of the larvae recorded. Test concentrations ranged from 0.1% downward. The LC-50 values are expressed below in Table 3 under the heading "TBW-C" in terms of percent of the test compound in the solution.

[3] = system: Tobacco Budworm [Heliothis virescens (Fabricius)] eggs; experiment: Tobacco budworm egg test; settings: 2-day old eggs, percent in solution
Outline: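 2-day eggs on paper towel, acetone dip, 0.1% and below; petri dish with larval diet, 78° F. Mortality read after control hatch and larval feeding. LC50 = % compound in solution, from dose-mortality curve.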

[4] = system: Housefly [Musca domestica]; experiment: Housefly insecticidal test; settings: μg per 25 female flies; mortality after 48 hours
Outline: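 LC50 (μg compound per 25 female flies) derives from dosage-mortality curves of 48 h kill. Flies, females 1-2 days old, were held 25 per cage over a dish coated with dried acetone deposit, starting at 100 μg per cage and descending.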

[5] = system: Aster Leafhopper [Macrosteles fascifrens (Stal)]; experiment: Aster leafhopper insecticidal test; settings: adults/nymphs, percent in solution; 48 hours
Outline: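 LC50 values, given as percent of test compound in the dip solution, were derived from dosage-mortality curves over concentrations from 0.05% downward. Mortality was counted 48 hours after ten leafhopper adults/nymphs were enclosed on treated seedlings. The seedlings were oats, about 10 cm tall, briefly dipped in 50-50 acetone-water.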

[6] = system: Maize weevil [Sitophilus Zeamais (Motschulsky)]; experiment: Maize weevil insecticidal test; settings: adult weevils, percent in solution; 48 hours
Outline: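 LC50, in percent of compound in solution, was derived from dosage-mortality curves after 48 h at about 25 °C. Ten adult weevils per container fed on four corn seeds briefly immersed in acetone:water (50:50) solutions of up to 0.01% and dried.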

Compound	LC50, CL [1]	LC50, TBW, C (TBW-C) [2]	LC50, TBW, E (TBW-E) [3]	LC50, HF [4]	LC50, LH [5]	LC50, MW [6]
ClC(Cl)C(=Nc1ccccc1)OCc1cccc(Oc2ccccc2)c1 [Compound 41]	0.015%	0.0035%	0.04%	4.5 µg	–	–
Fc1ccc(N=C(OCc2cccc(Oc3ccccc3)c2)C(Cl)Cl)cc1 [Compound 44]	–	< 0.1%	0.06%	3 µg	–	–
CC(C)C(=Nc1c(F)c(F)c(F)c(F)c1F)OCc1cccc(Oc2ccccc2)c1 [Compound 51]	0.001%	0.0025%	0.067%	25 µg	0.001%	–
Cc1c(F)cccc1N=C(OCc1cccc(Oc2ccccc2)c1)C(C)C [Compound 73]	0.004%	0.005%	0.025%	25 µg	–	–
Cc1ccc(F)cc1N=C(OCc1cccc(Oc2ccccc2)c1)C(C)C [Compound 74]	0.005%	0.0025%	0.025%	25 µg	–	–
Cc1ccc(N=C(OCc2cccc(Oc3ccccc3)c2)C(C)C)cc1F [Compound 75]	0.0025%	0.0075%	0.01%	5 µg	0.0008%	–
COc1ccc(N=C(OCc2cccc(Oc3ccccc3)c2)C(C)C)cc1Cl [Compound 95]	0.0025%	0.004%	0.025%	10 µg	–	–
Cc1cc(Cl)ccc1N=C(OCc1cccc(Oc2ccccc2)c1)C(C)C [Compound 96]	0.003%	0.0025%	0.025%	35 µg	–	–
CC(C)(C)c1ccc(N=C(OCc2cccc(Oc3ccccc3)c2)C(Cl)Cl)cc1 [Compound 140]	< 0.1%	> 0.1%	> 0.1%	> 100 µg	–	–
COc1ccc(N=C(OCc2cccc(Oc3ccccc3)c2)C(C)C)c(OC)c1 [Compound 146]	0.017%	0.025%	> 0.1%	40 µg	–	–
CC(=O)c1ccc(N=C(OCc2cccc(Oc3ccccc3)c2)C(C)C)cc1 [Compound 147]	0.01%	0.0075%	> 0.1%	10 µg	–	–
CC(C)C(=Nc1cc(F)cc(F)c1)OCc1cccc(Oc2ccc(F)cc2)c1 [Compound 199]	0.0006%	0.003%	> 0.1%	8 µg	–	> 0.01%
CC(C)(C)C(=Nc1ccc(F)c(Cl)c1)OCc1cccc(Oc2ccc(F)cc2)c1 [Compound 204]	0.0023%	0.004%	> 0.1%	> 100 µg	–	> 0.01%
CCC(C)C(=Nc1ccc(F)c(Cl)c1)OCc1cccc(Oc2ccc(F)cc2)c1 (stereo not shown) [Compound 210]	0.00028%	0.0015%	0.045%	35 µg	–	> 0.01%
CC(C)C(=Nc1ccc2c(c1)OC(C)(C)O2)OCc1cccc(Oc2ccc(F)cc2)c1 [Compound 219]	0.00025%	0.004%	0.027%	50 µg	–	> 0.01%
CC(C)C(=Nc1cccc(C(F)(F)F)c1)OCc1ccc(F)c(Oc2ccc(Cl)cc2)c1 [Compound 266]	0.00016%	0.0007%	0.06%	10 µg	–	–
C=C(C)C(=Nc1ccc(C(F)(F)F)cc1)OCc1ccc(F)c(Oc2ccc(Cl)cc2)c1 [Compound 432]	0.0012%	< 0.1%	0.032%	< 100 µg	–	> 0.01%

Compound	LC50, CL [1]	LC50, TBW, C (TBW-C) [2]	LC50, TBW, E (TBW-E) [3]	LC50, HF [4]	LC50, LH [5]	LC50, MW [6]
CC(C)C(=Nc1ccc(F)c(Cl)c1)OCc1cccc(Oc2ccc(Cl)cn2)c1 [Compound 527]	0.00065%	–	0.035%	47 µg	> 0.05%	> 0.01%
CC(C)C(=Nc1ccc2c(c1)OCO2)OCc1cccc(Oc2ccc(Cl)cn2)c1 [Compound 532]	< 0.1%	–	> 0.1%	> 100 µg	> 0.05%	> 0.01%
C#CC(OC(=Nc1ccc(F)c(Cl)c1)C(C)C)c1cccc(Oc2ccccc2)c1 (stereo not shown) [Compound 533, N-(3-chloro-4-fluorophenyl)-O-[1-(3-phenoxyphenyl)-2-propyn-1-yl]isobutyrimidate]	> 0.1%	–	> 0.1%	60 µg	> 0.05%	> 0.01%
CC(C)C(=Nc1ccc(F)c(Cl)c1)OCC#CCOc1ccccc1 [Compound 534]	< 0.1%	–	> 0.1%	> 100 µg	> 0.05%	> 0.01%
CC(C)C(=Nc1ccc(C(F)(F)F)cc1)OCc1cccc(Cc2ccccc2)c1 [Compound 535]	> 0.1%	–	> 0.1%	41 µg	> 0.05%	> 0.01%
Cc1c(COC(=Nc2ccc(C(C)(C)C)cc2)C(C)C)cccc1-c1ccccc1 [Compound 536]	< 0.1%	–	> 0.1%	> 100 µg	> 0.05%	> 0.01%
CC(C)C(=Nc1ccc(F)c(Cl)c1)OCc1cccc(Cc2ccccc2)c1 [Compound 537]	> 0.1%	–	> 0.1%	20 µg	> 0.05%	> 0.01%
CC(C)C(=Nc1ccc(OC(F)(F)F)cc1)OCc1cccc(Cc2ccccc2)c1 [Compound 538]	> 0.1%	–	> 0.1%	75 µg	> 0.05%	> 0.01%
CC(C)C(=Nc1ccc([N+](=O)[O-])cc1)OCc1coc(Cc2ccccc2)c1 [Compound 539]	> 0.1%	–	> 0.1%	22 µg	> 0.05%	> 0.01%
CC(C)C(=Nc1ccc2c(c1)OCO2)OCc1ccnc(Oc2ccccc2)c1 [Compound 540]	< 0.1%	–	> 0.1%	> 100 µg	> 0.05%	> 0.01%
COCc1c(F)c(F)c(COC(=Nc2ccc(C(C)(C)C)cc2)C(C)C)c(F)c1F [Compound 544]	> 0.1%	–	> 0.1%	> 100 µg	> 0.05%	> 0.01%
Cc1cccc(N=C(OCc2cccc(Oc3ccc(Cl)cc3)n2)C(C)C)c1 [Compound 545]	> 0.1%	–	> 0.1%	< 100 µg	> 0.05%	> 0.01%
C#CCc1c(F)c(F)c(COC(=Nc2cccc(C(F)(F)F)c2)C(C)C)c(F)c1F [Compound 546]	0.0001%	–	> 0.1%	< 100 µg	< 0.05%	0.0032%
C#CCc1c(F)c(F)c(COC(=Nc2ccc3c(c2)OCO3)C(C)C)c(F)c1F [Compound 547]	0.0005%	–	0.05%	< 100 µg	< 0.05%	> 0.01%
CC(C)C(=Nc1cccc(C(F)(F)F)c1)OCC#CCOc1ccccc1 [Compound 548]	< 0.1%	–	> 0.1%	> 100 µg	> 0.05%	> 0.01%
CC(C)C(=Nc1ccc(F)c(Cl)c1)OCc1cccc(Oc2ccccn2)c1 [Compound 549]	> 0.1%	–	> 0.1%	< 100 µg	> 0.05%	> 0.01%
